# Assay results as given in patent US8747837B2, “Oncolytic vaccinia virus combination cancer therapy” (priority 2009, dated 2014).
# “Also recorded” adds a separate entry of the source. Read-outs that look alike come from different tables or passages of the source.
# What was measured:
# [1] = test system: JX-594 replication in HepG2 (HCC) cells; format: cell-based, vaccinia virus
# [2] = test system: JX-594 replication in SNU423, SNU398, SNU475, SNU449, SNU387 and U2OS; format: cell-based, vaccinia virus
# hepatocellular carcinoma [3] = assay: Sorafenib-only local control group assessed by Choi criteria; format: in vivo, human; details: no JX-594, 26 total, 15 assessed, both responders also had radiation therapy
# Procedure: Example Sorafenib Only “Control Group” (Figure Included): Historically, the RECIST response rate to sorafenib alone is 1-2% (Llovet et al., 2008; Cheng et al., 2009). For a local control group assessed by Choi criteria, HCC patients that had not received JX-594, but had received sorafenib, were assessed for Choi response. In the hospital where 4 of the 5 JX-594 patients were treated, 26 other patients had received sorafenib in the same period. 7 patients died prior to response assessment, and 15 patients were assessed for Choi response. […] It should be noted that both of these patients had received radiation therapy in conjunction with sorafenib therapy.
# hepatocellular carcinoma [4] = assay: Phase 2 trial, IV JX-594 then IT JX-594 then sorafenib in HCC; format: in vivo, human; details: Patient JX16-HCC-03, 10 days after sorafenib initiation, after one IV and two IT doses of JX-594
# Procedure: JX-594 Treatment Procedure, Patients Treated by IV JX-594 Followed by IT JX-594 Followed by Sorafenib: Patients with unresectable HCC received […] of JX-594 levels (10^9 pfu). For the first dose (Day 1), JX-594 was administred by intravenous infusion over 60 minutes. For the second and third doses (Day 8 and Day 22), JX-594 was administered via imaging-guided intratumoral injection using a multi-pronged Quadrafuse injection needle in roughly spherical tumors, or by a 21-gauge PEIT (percutaneous ethanol injection, multi-pore; HAKKO Medicals; Tokyo, Japan) needle in irregularly-shaped tumors. Starting on Day 25, patients imitated oral sorafenib therapy (400 mg twice daily p.o.). Patients with viable tumor tissue received a Week 12 IT injection of JX-594 (sorafenib treatment was temporarily discontinued 2-3 days before, during and 4-5 days after this booster injection). Imaging (CT, DECE MIR and/or PET-CT) was performed at baseline, Day 25, Week 6 and/or Week 12 to assess response.
# Example JX16-HCC-03, IV+IT+IT+Sorafenib Patient: Patient JX16-HCC-03 had hepatocellular carcinoma and was enrolled in a Phase 2 Clinical Trial of JX-594. After completing JX-594 administration (one intravenous and two intratumoral doses) patient received sorafenib.
# [5] = test system: JX-594 replication in PLC/PRF/5 human HCC cell line; assay: JX-594 burst size / replication with sorafenib in PLC/PRF/5 cells; format: cell-based, vaccinia virus
# [6] = test system: JX-594 replication in A2780 (ovarian) cells; format: cell-based, vaccinia virus
# hepatocellular carcinoma [7] = details: cited from earlier work; for mean tumor necrosis (MRI): sorafenib-only trial
# murine HCC model = format: in vivo
# hepatocellular carcinoma [8] = assay: Sorafenib therapy following JX-594 in HCC patients (DCE-MRI, Choi); format: in vivo, human
# Procedure: Sorafenib Therapy and Tumor Response Assessment Following JX-594: Patients completed the IT clinical trial of JX-594 after 8 weeks on study. Some patients (Patients 1702, 1705, 1002, 1712, 1713) went on to receive standard sorafenib treatment (400 mg twice daily p.o.). Tumors in these patients were followed by DCE-MRI imaging using the same procedures that were used to assess response to JX-594 treatment.
# Tumor Vascularity and Response Assessment: DCE MRI (dynamic contrast-enhanced magnetic resonance imaging) was performed at screening (baseline), on Day 5 (optional) and Week 8. For patients going on to Sorafenib, DCE MRI was performed 4 and/or 8 weeks after the start of Sorafenib treatment. DCE MRI assesses tumor size, vascularity and necrosis. The screening/baseline DCE MRI was used as the reference from which to determine time to progression and response rates. […] Tumor progression status and tumor response(s) to JX-594 were assessed radiologically by modified RECIST and modified Choi criteria at the Week 8 visit. Independent review of the images was made by radiologist(s) with expertise in evaluating hepatocellular carcinoma on MRI scans. For evaluation of the intra-hepatic tumors, the proportion of subjects with an objective “complete” or “partial” anti-tumor response was determined based on modified RECIST, and a response as measured by Modified Choi criteria (defined as a ≧10% decrease in the sum of the longest diameter and/or ≧15% decrease in the average tumor signal intensity at MRI).
# Tumor Response by Modified Choi Criteria: The Choi response criteria takes into consideration changes in tumor density in addition to tumor diameter (versus RECIST) and data supporting its utility has been published (Choi et al. 2004). Early studies have shown that liver tumors treated with JX-594 can develop significant internal necrosis without a concomitant decrease in size, as has been described in gastrointestinal stromal tumors by Choi et al. (2004). Therefore, intra-hepatic tumors were also measured and response evaluated using a Modified Choi Criteria. The modification of the criteria is necessary as DCE MRI was the imaging modality employed for measuring tumor response. […] The screening/baseline DCE MRI was used as the reference from which to determine response. A response by Modified Choi criteria was defined as a ≧10% decrease in the sum of the longest diameter of the injected tumor(s) and/or ≧15% decrease in the average injected tumor signal intensity on MRI. The average MRI signal intensity (SI) was measured as a percentage of tumor.
# [9] = test system: HepG2 (human HCC line) tumors; assay: HepG2 vascularity study, CD31 vessel counts; format: in vivo, nude mice
# Source text: FIG. 6 Anti-vascular effects of JX-594 followed by sorafenib. Top panels show study design of a preclinical study of JX-594 followed by Sorafenib in HepG2 xenograft model. […] Error bars are standard error.
# Experimental Methods, Vascularity Study: The study followed longer term effects on vascularity and assessed the efficacy of JX-594+/−Sorafenib in the HepG2 model. HepG2 (human HCC line) tumors were implanted subcutaneously in nude mice. Animals were randomized to seven treatment groups (n=5 per group) to test agents alone, and in combination. Groups were treated with JX-594 (10^6 pfu intratumorally, D1 and D8) and/or Sorafenib (400 μg i.p., daily D15-D29) or PBS (control) on the schedule detailed in (FIG. 6). Tumors were measured using calipers twice weekly. Serum samples were collected on D1, D8, D15, D22 and D29 for measurement of VEGF and GM-CSF levels. Mice were euthanized on D22 or D35. Prior to euthanization, mice were injected with fluorescent microspheres to allow for visualization of tumor perfusion. […]
# Results: Vessels were counted in CD31-stained OCT tumor sections; the average number of vessels in 3 fields of 200× magnification are presented in (FIG. 6).
# [10] = test system: CT26 colorectal tumor cells; assay: CT26 subcutaneous colorectal tumor model; format: in vivo, Balb/c mice; details: combination therapy, FIG. 3 legend
# Procedure: FIG. 3. […] Kaplan-Meier survival curves are shown for each condition in the middle panel. Effects on tumor volume are shown in the lower panel.
# Sorafenib enhances JX-594 activity against murine CT26 primary tumors in vivo: The combination of JX-594 and sorafenib was tested in an immunocompentent murine model of subcutaneously implanted CT26 colorectal tumor cells. Balb/c mice were injected with 3×10^5 CT26 cells subcutaneously and after 11 days, treatment commenced with Sorafenib alone (10 mg/kg p.o. daily for 2 weeks), JX594 alone (10^8 pfu IV 3 times per week for 1 week), or in combination (JX594 prior to Sorafenib, or Sorafenib prior to JX594) (n=4 per group) (FIG. 3, upper panel). Control animals received PBS only. For this experiment, a version of JX-594 was used that expresses murine GM-CSF. Tumors were measured twice weekly until endpoint. Surviving proportions of each study group at each timepoint post treatment are shown (FIG. 3, middle panel). The mean tumor volumes of each study group at each timepoint post-treatment are shown (FIG. 3, lower panel).
# B16-F10-LacZ cells = assay: B16 melanoma lung nodule model; format: in vivo, C57BL/6 mice; details: combination therapy, FIG. 4 legend
# Procedure: Sorafenib Enhances JX-594 Activity Against Murine B16 Melanoma Lung Nodules in Vivo: The combination of JX-594 and sorafenib was tested in an immunocompentent murine model of B16 melanoma tumors. C57BL/6 mice were injected with 3×10^5 B16-F10-LacZ cells IV and treated with Sorafenib alone (HD: 10 mg/kg, LD: 50 μg/kg p.o. daily for 2 weeks), JX594 alone (10^7 pfu IV 3 times per week for 1 week), or in combination (LD or HD sorafenib prior to JX-594 IV) (n=5 per group)(FIG. 4, top panel). At the end of treatment, mice were sacrificed and lungs were fixed and stained to detect B16 surface nodules (n=5 per group). The mean number of tumor nodules at the end of study is shown for each group (FIG. 4).
smiles,measurement,setting,value
CNC(=O)c1cc(Oc2ccc(NC(=O)Nc3ccc(Cl)c(C(F)(F)F)c3)cc2)ccn1 [Sorafenib],JX-594 plaque formation and replication (burst),[1],can inhibit viral growth and replication; also recorded: Inhibits JX-594 Plaque Formation and Replication
same,JX-594 replication,[2],inhibited JX-594 replication
same,patients with a Choi+ response,hepatocellular carcinoma [3],2 patients
same,DCE-MRI perfusion of non-injected extrahepatic tumor,hepatocellular carcinoma [4],loss of perfusion
same,JX-594 replication,"[5]; 10 μM sorafenib, various MOI, 24 hours infection, plaque assay on Vero cells",inhibited
same,burst size decreased,"[5]; Sorafenib 10 μM added 2 hrs prior to, during or 2 hrs after JX-594 infection, PLC/PRF/5",up to 100 fold
same,JX-594 plaque formation and replication (burst),[6],can inhibit viral growth and replication; also recorded: Inhibits JX-594 Plaque Formation and Replication
same,RECIST response rate,"hepatocellular carcinoma [7]; sorafenib alone, historical (Llovet et al., 2008; Cheng et al., 2009)",1-2%
same,mean tumor necrosis (MRI),"hepatocellular carcinoma [7]; after several courses of treatment (Abou-Alfa et al., 2006)",27%
same,mean tumor necrosis (MRI),"hepatocellular carcinoma [7]; at baseline (Abou-Alfa et al., 2006)",9.8%
same,angiogenesis,murine HCC model; adjuvant sorafenib after JX-594,inhibited angiogenesis
same,anti-tumoral efficacy,"murine HCC model; adjuvant sorafenib after JX-594, versus either agent alone",significantly improved anti-tumoral efficacy over either agent alone
same,DCE MRI finding after initiation of Sorafenib,"hepatocellular carcinoma [8]; Patient 1702, after three IT doses JX-594, 4 and 8 weeks of Sorafenib (200 mg twice daily p.o.)",acute tumor necrosis
same,DCE MRI finding after initiation of Sorafenib,"hepatocellular carcinoma [8]; Patient 1705, after JX-594, 4 weeks of Sorafenib 400 mg twice daily p.o.",acute tumor necrosis
same,DCE-MRI finding after initiation of Sorafenib,"hepatocellular carcinoma [8]; Patient 1712, after JX-594, 4 weeks of Sorafenib 400 mg twice daily p.o.",acute tumor necrosis
same,tumor necrosis and vascular shutdown with adjuvant sorafenib,"hepatocellular carcinoma [8]; sorafenib after the Week 8 assessment, patients pre-treated with JX-594",dramatic and durable tumor necrosis and vascular shutdown in two patients; also recorded: dramatic and durable tumor necrosis and vascular shutdown in at least three patients
same,number of vessels in CD31-stained tumor sections,"[9]; Sorafenib alone 400 μg i.p. daily D15-D29, Day 29",transient decrease in the number of vessels
same,number of vessels in CD31-stained tumor sections,"[9]; Sorafenib alone, Day 35",vessel counts increase again
same,JX-594 efficacy against CT26 subcutaneous solid tumors,[10],enhances JX-594 efficacy
same,JX-594 efficacy in murine B16 metastatic melanoma model,B16-F10-LacZ cells,enhances JX-594 efficacy
